# Tests used:
# [1] = tested on: SARS-CoV-2; experiment: Phase 2/3 study, Phase 2a Part: COVID-19 symptom score and exacerbation (Ordinal scale); format: in vivo, human; conditions: mild/moderate patients
# Procedure: The 750/250 mg group received 750 mg on Day 1 as a loading dose and 250 mg on Days 2 to 5 as a maintenance dose.
# [2] = tested on: SARS-CoV-2; experiment: Cytopathic effect (CPE) suppression effect confirmation test using VeroE6/TMPRSS2 cells; format: cell-based
# [3] = Phase 2/3 study: frequency of adverse events; format: in vivo, human; conditions: for Adverse events leading to discontinuation of administration, causally related to the investigational new drug: recovering or recovered after discontinuation
# [4] = tested on: SARS-CoV-2; experiment: Phase 2/3 study, Phase 2b Part: SARS-CoV-2 virus titer on Day 4; format: in vivo, human; conditions: for Change from baseline in SARS-CoV-2 virus titer on Day 4: Adjusted mean value by covariance analysis (standard error) / Change from baseline in SARS-CoV-2 virus titer on Day 4: Difference of adjusted mean value from that of placebo group (standard error) / Change from baseline in SARS-CoV-2 virus titer on Day 4: Maximum value / Change from baseline in SARS-CoV-2 virus titer on Day 4: Mean value / Change from baseline in SARS-CoV-2 virus titer on Day 4: Median value / Change from baseline in SARS-CoV-2 virus titer on Day 4: Minimum value: mild/moderate patients, ITT1 population
# Procedure: The primary endpoints of Phase 2b Part were the time-weighted average change in the total score of 12 COVID-19 symptoms per unit time from the start of the first administration (Day 1) to 120 hours (Day 6), and the change from baseline in SARS-CoV-2 virus titer on Day 4, in mild/moderate SARS-CoV-2-infected patients, and the clinical improvement and the antiviral effect of the active drug were confirmed.
# (§1) The administration of the active drug is repeated oral administration once a day for 5 days. The 375/125 mg group received 375 mg on Day 1 as a loading dose and 125 mg on Days 2 to 5 as a maintenance dose. The 750/250 mg group received 750 mg on Day 1 as a loading dose and 250 mg on Days 2 to 5 as a maintenance dose.
# The primary efficacy endpoints of Phase 2b Part for mild/moderate SARS-CoV-2-infected patients were the time-weighted average change in the total score of 12 COVID-19 symptoms per unit time from the start of the first administration (Day 1) to 120 hours (Day 6), and the change from baseline in SARS-CoV-2 virus titer on Day 4. The total score of 12 COVID-19 symptoms is the sum of the scores determined by evaluation in four grades (0: none, 1: mild, 2: moderate, 3: severe) in the subject daily records for each of the 12 COVID-19 symptoms (low energy and tiredness, muscle or body aches, headache, chills or shivering, feeling hot or feverish, stuffy and runny nose, sore throat, cough, shortness of breath (difficulty breathing), nausea, vomiting, diarrhea).
# Pairwise comparison was performed between each active drug dose group and the placebo group. […] Pairwise comparison was performed between each active drug dose group and the placebo group.
# [5] = monkey, in vivo
# [6] = tested on: SARS-CoV-2; conditions: mouse, in vivo
# [7] = tested on: SARS-CoV-2; experiment: Phase 2/3 study, Phase 2a Part: SARS-CoV-2 virus titer; format: in vivo, human; conditions: for Change from baseline in SARS-CoV-2 virus titer compared to placebo group: mITT, significance level 0.05
# Procedure: The primary endpoint of Phase 2a Part was the change from baseline in SARS-CoV-2 virus titer at each time point in common among mild/moderate and asymptomatic SARS-CoV-2-infected patients, and the antiviral effect of the active drug was confirmed.
# as §1
# The primary efficacy endpoint of Phase 2a Part was the change from baseline in SARS-CoV-2 virus titer at each time point in common among mild/moderate and asymptomatic SARS-CoV-2-infected patients. It was defined as an absolute change from baseline in observed value of SARS-CoV-2 virus titer at each time point.
# For each population of the mild/moderate SARS-CoV-2-infected patients, the asymptomatic SARS-CoV-2-infected patients, and the merged population thereof, summary statistics of the change from baseline in SARS-CoV-2 virus titer at each time point were calculated for the mITT population. Furthermore, a van Elteren test was applied to a combined population of mild/moderate and asymptomatic SARS-CoV-2-infected patients. Pairwise comparisons were made between each active drug dose group and the placebo group for SARS-CoV-2 virus titer at each time point at a two-sided significance level of 5%. The population of the mild/moderate SARS-CoV-2-infected patients and the population of the asymptomatic SARS-CoV-2-infected patients were used as strata in the van Elteren test.
# In addition, when the virus titer was less than the lower detection limit (0.8 log10 (TCID50/mL)), the value of the virus titer was handled as 0.8 log10 (TCID50/mL). […] In the RT-PCR measurement results and the virus titer measurement results that were available by the time point of Jan.
structure (smiles),measurement,setting,value
"Cn1cnc(Cn2c(=O)[nH]/c(=N\c3cc4cn(C)nc4cc3Cl)n(Cc3cc(F)c(F)cc3F)c2=O)n1 [(6E)-6-[(6-chloro-2-methyl-2H-indazol-5-yl)imino]-3-[(1-methyl-1H-1,2,4-triazol-3-yl)methyl]-1-[(2,4,5-trifluorophenyl)methyl]-1,3,5-triazinane-2,4-dione]",Exacerbation rate (Ordinal scale deteriorated to 3 or more for the first time),[1]; 375/125 mg group,0.0%
same,Number of exacerbations/number of cases to be analyzed,[1]; 375/125 mg group,0/13
same,Change from baseline in total score of 12 COVID-19 symptoms compared to placebo group,"[1]; 375/125 mg group and 750/250 mg group, all time points on Day 2 and thereafter, FIG. 6",tendency for the total score of the twelve COVID-19 symptoms to numerically improve
same,Exacerbation rate (Ordinal scale deteriorated to 3 or more for the first time),[1]; 750/250 mg group,0.0%
same,Number of exacerbations/number of cases to be analyzed,[1]; 750/250 mg group,0/12
same,EC50,"[2]; Severe acute respiratory syndrome coronavirus 2, VeroE6/TMPRSS2, Alpha strain (QHN001)",0.31 µM
same,EC50,"[2]; Severe acute respiratory syndrome coronavirus 2, VeroE6/TMPRSS2, Alpha strain (QHN002)",0.46 µM
same,EC50,"[2]; Severe acute respiratory syndrome coronavirus 2, VeroE6/TMPRSS2, Alpha strain (QK002)",0.33 µM
same,EC50,"[2]; Severe acute respiratory syndrome coronavirus 2, VeroE6/TMPRSS2, Beta strain (TY8-612)",0.4 µM
same,EC50,"[2]; Severe acute respiratory syndrome coronavirus 2, VeroE6/TMPRSS2, Delta strain (TY11-927-P1)",0.41 µM
same,EC50,"[2]; Severe acute respiratory syndrome coronavirus 2, VeroE6/TMPRSS2, Gamma strain (TY7-501)",0.5 µM
same,EC50,"[2]; Severe acute respiratory syndrome coronavirus 2, VeroE6/TMPRSS2, Gamma strain (TY7-503)",0.43 µM
same,EC50,"[2]; Severe acute respiratory syndrome coronavirus 2, VeroE6/TMPRSS2, Lambda strain (TY33-456)",0.27 µM
same,EC50,"[2]; Severe acute respiratory syndrome coronavirus 2, VeroE6/TMPRSS2, Mu strain (TY26-717)",0.43 µM
same,EC50,"[2]; Severe acute respiratory syndrome coronavirus 2, VeroE6/TMPRSS2, Omicron BA.1 strain (TY38-873)",0.29 µM
same,EC50,"[2]; Severe acute respiratory syndrome coronavirus 2, VeroE6/TMPRSS2, Omicron BA.1.1 strain (TY38-871)",0.36 µM
same,EC50,"[2]; Severe acute respiratory syndrome coronavirus 2, VeroE6/TMPRSS2, Omicron BA.2 strain (TY40-385)",0.52 µM
same,EC50,"[2]; Severe acute respiratory syndrome coronavirus 2, VeroE6/TMPRSS2, Omicron BA.2.12.1 strain (TY41-721)",0.24 µM
same,EC50,"[2]; Severe acute respiratory syndrome coronavirus 2, VeroE6/TMPRSS2, Omicron BA.2.75 strain (TY41-716)",0.3 µM
same,EC50,"[2]; Severe acute respiratory syndrome coronavirus 2, VeroE6/TMPRSS2, Omicron BA.4 strain (TY41-703)",0.22 µM
same,EC50,"[2]; Severe acute respiratory syndrome coronavirus 2, VeroE6/TMPRSS2, Omicron BA.5 strain (TY41-702)",0.4 µM
same,EC50,"[2]; Severe acute respiratory syndrome coronavirus 2, VeroE6/TMPRSS2, Omicron BQ.1.1 strain (TY41-796)",0.48 µM
same,EC50,"[2]; Severe acute respiratory syndrome coronavirus 2, VeroE6/TMPRSS2, Omicron XBB.1 strain (TY41-795)",0.33 µM
same,EC50,"[2]; Severe acute respiratory syndrome coronavirus 2, VeroE6/TMPRSS2, Omicron XE strain (TY41-686)",0.44 µM
same,EC50,"[2]; Severe acute respiratory syndrome coronavirus 2, VeroE6/TMPRSS2, Theta strain (TY28-444)",0.29 µM
same,Adverse events leading to deaths,[3]; Phase 2a Part,no adverse events leading to deaths
same,"Deaths, serious adverse events, adverse events leading to discontinuation of administration",[3]; Phase 2a Part,"no deaths, serious adverse events, or adverse events leading to discontinuation of administration"
same,Adverse events leading to the discontinuation of administration,"[3]; Phase 2a Part, 375/125 mg group, both causally related to the investigational new drug",Two adverse events leading to the discontinuation of administration were observed
same,serious adverse events,"[3]; Phase 2a Part, active drug group",not in the active drug group
same,Adverse events leading to deaths,[3]; Phase 3 Part,no adverse events leading to deaths
same,Serious adverse event,"[3]; Phase 3 Part, 375/125 mg group, no causal relationship with the investigational new drug",observed in one case
same,"Adverse events leading to discontinuation of administration, causally related to the investigational new drug","[3]; Phase 3 Part, 375/125 mg group",eczema and emesis
same,"Adverse events leading to discontinuation of administration, causally related to the investigational new drug","[3]; Phase 3 Part, 750/250 mg group",rash (2 cases)
same,Proportion of patients with a positive virus titer of 1.1 or more on Day 4,[4]; 375/125 mg group,1.9%
same,SARS-CoV-2 virus titer on Day 4 as compared with the placebo group,"[4]; 375/125 mg group and 750/250 mg group, p<0.0001",statistically significantly reduced
same,Proportion of patients with a positive virus titer of 1.1 or more on Day 4,[4]; 750/250 mg group,5.4%
same,Change from baseline in SARS-CoV-2 virus titer on Day 4: Adjusted mean value by covariance analysis (standard error),[4]; 375/125 mg group,−1.49 (0.04)
same,Change from baseline in SARS-CoV-2 virus titer on Day 4: Difference of adjusted mean value from that of placebo group (standard error),[4]; 375/125 mg group,−0.41 (0.05)
same,Change from baseline in SARS-CoV-2 virus titer on Day 4: Maximum value,[4]; 375/125 mg group,0.0
same,Change from baseline in SARS-CoV-2 virus titer on Day 4: Mean value,[4]; 375/125 mg group,−1.69
same,Change from baseline in SARS-CoV-2 virus titer on Day 4: Median value,[4]; 375/125 mg group,−1.70
same,Change from baseline in SARS-CoV-2 virus titer on Day 4: Minimum value,[4]; 375/125 mg group,−3.7
same,Change from baseline in SARS-CoV-2 virus titer on Day 4: Adjusted mean value by covariance analysis (standard error),[4]; 750/250 mg group,−1.49 (0.04)
same,Change from baseline in SARS-CoV-2 virus titer on Day 4: Difference of adjusted mean value from that of placebo group (standard error),[4]; 750/250 mg group,−0.41 (0.05)
same,Change from baseline in SARS-CoV-2 virus titer on Day 4: Maximum value,[4]; 750/250 mg group,0.0
same,Change from baseline in SARS-CoV-2 virus titer on Day 4: Mean value,[4]; 750/250 mg group,−1.43
same,Change from baseline in SARS-CoV-2 virus titer on Day 4: Median value,[4]; 750/250 mg group,−1.40
same,Change from baseline in SARS-CoV-2 virus titer on Day 4: Minimum value,[4]; 750/250 mg group,−3.4
same,NOAEL (plasma concentration),[5],75.2 to 77.6 µg/mL
same,maximum plasma concentration (Cmax) in humans that reduces the virus titer by 2 log,[6],14.1 μg/mL
same,maximum plasma concentration (Cmax) in humans that reduces the virus titer by 3 log,[6],23.0 μg/mL
same,"Decrease of proportion of patients with a positive virus titer of 0.8 or more, with respect to placebo group","[7]; Day 4, 375/125 mg group",63%
same,"Decrease of proportion of patients with a positive virus titer of 0.8 or more, with respect to placebo group","[7]; Day 4, 750/250 mg group",80%
same,"Decrease of proportion of patients with a positive virus titer of 0.8 or more, with respect to placebo group","[7]; Day 6, 375/125 mg group",100%
same,"Decrease of proportion of patients with a positive virus titer of 0.8 or more, with respect to placebo group","[7]; Day 6, 750/250 mg group",54%
same,Change from baseline in SARS-CoV-2 virus titer compared to placebo group,"[7]; 375/125 mg group, Visit 3 (Day 4)",statistically significantly decreased
same,Change from baseline in SARS-CoV-2 virus titer compared to placebo group,"[7]; 750/250 mg group, Visit 2 (Day 2) and Visit 3 (Day 4)",statistically significantly decreased
same,SARS-CoV-2 virus titer compared to placebo group,"[7]; results available by Jan. 17, 2022, 375/125 mg group, all time points after Visit 3 (Day 4)",tendency for the virus titer to decrease
same,SARS-CoV-2 virus titer compared to placebo group,"[7]; results available by Jan. 17, 2022, 750/250 mg group, all time points after Visit 2 (Day 2)",tendency for the virus titer to decrease
